Literature values as cited in patent publication US20220378857A1, “COMPOSITION FOR THE CARDIOVASCULAR RISK REDUCTION” (NEILOS S.R.L., priority 2019, published 2022).
Read-outs that look alike come from different tables or passages of the source.

[1] = 7.5 mg/die of active principle for 12 weeks
[2] = 11.4 mg/die of monacolin for 8 weeks

CC[C@H](C)C(=O)O[C@H]1C[C@@H](C)C=C2C=C[C@H](C)[C@H](CC[C@@H]3C[C@@H](O)CC(=O)O3)[C@H]21 [monacolin, monacolin k]
reduction in the levels of LDL cholesterol [1]: 22% | reduction in the levels of total cholesterol [1]: 16% | reduction in the levels of LDL cholesterol [2]: 26% | reduction in the levels of total cholesterol [2]: 20%
